Measurements: patent US20130263297A1, “METHODS OF TREATING CANCER” (Cedars-Sinai Medical Center, priority 2010, published 2013)
Entries after “also recorded” stand apart in the source; their conditions may differ.

Tests used:
RAW 264.7 cells = test: In vitro osteoclastogenesis assay (co-culture of RAW 264.7 osteoclast precursor cells with prostate cancer cells, TRAP staining); assay type: cell-based, mouse
Protocol: The co-cultures of osteoclast precursor cells (RAW 264.7 cells) and prostate cancer cells were performed in 48-well plate containing 500 μl of α-MEM media supplemented with 10% FBS and were set up in quadruplicates. Osteoclast precursor cells were seeded with prostate cancer cells in an 8:1 ratio (15,000 RAW 264.7 cells and 1,875 prostate cancer cells) per well. Recombinant mouse RANKL (100 ng/ml, provided by Dr. Xu Feng), was added to the assay as the positive control. Additionally, recombinant OPG (1 μg/ml) was added to designated wells to block RANKL-mediated increased osteoclastogenesis. The cells were checked under the microscope daily from day-4 to day-7. Cells were fixed and subjected to tartrate-resistant acid phosphatase (TRAP) staining (Sigma-Aldrich, Inc., St. Louis, Mo.). TRAP^+ multinucleated cells (3 nuclei) in the entire well were counted as mature osteoclasts and the images were taken under light microscopy.

[1] = system: prostate (ARCaP and LNCaP) and osteosarcoma (MG-63 and Saos-2) cells; normal prostate (PrEC and RWPE-1) or bone (RAW264.7) cells; test: RANKL induction of its own expression, cancer versus normal cells; assay type: cell-based

| Molecule | formation of mature osteoclasts induced by ARCaPE-RANKL and LNCaP-RANKL cells (RAW 264.7 cells; addition of OPG (1 μg/ml) to co-culture with RAW264.7) | osteoclastogenesis induced by Neo-transfected control cells (RAW 264.7 cells; addition of OPG to co-culture with RAW264.7) | ability of recombinant RANKL to induce its own expression [1] |
| --- | --- | --- | --- |
| osteoprotegerin [OPG] | blocked; also recorded: decreased by approximately two-fold | very minimal blocking effects |  |
| RANKL: trimerized recombinant RANKL protein (rRANKL), receptor activator of NF-KB ligand (protein, UniProt O14788 69-317, looked up, extracellular domain trimerized) extracellular domain: YFRAQMDPNRISEDGTHCIYRILRLHENADFQDTTLESQDTKLIPDSCRRIKQAFQGAVQKELQHIVGSQHIRAEKAMVDGSWLDLAKRSKLEAQPFAHLTINATDIPSGSHKVSLSSWYHDRGWAKISNMTFSNGKLIVNQDGFYYLYANICFRHHETSGDLATEYLQLMVYVTKTSIKIPSSHTLMKGGSTKYWSGNSEFHFYSINVGGFFKLRSGEEISIEVSNPSLLDPDQDATYFGAFKVRDID |  |  | restricted to cancer |
